Measurements as given in US6846182B1, “Dental bleaching composition and method” (priority 1996, dated 2005).

Procedure: Fluoride has been used in dentistry to reduce sensitivity for many years. Often, when the root surface of teeth is exposed to the oral cavity due to gingival recession, these teeth become sensitive to hot, cold and sometimes sweets. […] This post bleaching pain usually has an onset of about 2 hours post-bleaching and lasts for 2 or more days.

Q: What does the source list for neutral sodium fluoride?
A: post-bleaching pain level (applied 5 minutes post bleaching): often diminished; post-bleaching sensitivity (applied at least 10 minutes after bleaching is completed): almost completely eliminated
